Measured values: patent US20250082633A1, “COMPOUNDS AND METHODS FOR MODULATING SPLICING” (REMIX THERAPEUTICS INC., priority 2021, published 2025)
Like-named read-outs stand apart in the source and are kept apart here.

Experiments:
MYB mRNA = experiment: RT-qPCR splicing assay, MYB canonical (CJ) and alternative (AJ) junction mRNA; assay type: cell-based; conditions: Homo sapiens; for IC50: read-out: MYB CJ IC50; for AC50: read-out: MYB AJ AC50
In short: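 Splice-junction mRNAs (CJ, AJ) measured by TaqMan one-step RT-qPCR on cell lysates, using PPIA as reference for adherent A673 and GAPDH or GUSB for K562. Cells exposed for 24 h to 11 threefold concentrations up to 10 uM final, with DMSO at or below 0.25%.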

SMN2 mRNA = experiment: RT-qPCR splicing assay, gene panel, SMN2 canonical junction (CJ) mRNA; assay type: cell-based; conditions: Homo sapiens, read-out: SMN2 CJ IC50
In short: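 A673 (DMEM/10% FBS) or K562 (IMDM/10% FBS) cells were treated 24 h at 37 °C with an 11-point 3-fold dilution series, top final 10 uM, DMSO ≤0.25%. Lysates underwent one-step RT-qPCR for the canonical-junction isoform with GAPDH, GUSB or PPIA as housekeeper. ΔΔCt versus DMSO was converted to RQ (2^−ΔΔCt), then to percent response.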

[1] = decrease in CJ mRNA levels, larger panel of genes, Table 3
[2] = decrease in canonical junction mRNA, A673 or K562 cells, 24 hours treatment, Table 2
[3] = increase in alternative junction mRNA, A673 or K562 cells, 24 hours treatment, Table 2

Compound | IC50 (MYB mRNA; [1]) [µM] | IC50 (MYB mRNA; [2]) [µM] | IC50 (SMN2 mRNA; [1]) [µM] | AC50 (MYB mRNA; [3]) [µM] | AC50 (MYB mRNA; 24 h) [µM] | IC50 (MYB mRNA; 24 h) [µM] | IC50 (MYB mRNA) [µM] | IC50 (SMN2 mRNA) [µM]
Cc1ncc2cc(-c3cc(F)c4nn(C5CCNCC5)cc4c3)ccc2n1 [Compound 165, 6-[7-fluoro-2-(4-piperidyl)indazol-5-yl]-2-methyl-quinazoline] | > 10 | > 10 | > 10 | > 10 | – | – | – | –
Cc1cn2nc(-c3cc(F)c4nn([C@H]5CCNC[C@@H]5F)cc4c3)cc(C)c2n1 [Compound 167, 6-(7-fluoro-2-((3S,4S)-3-fluoropiperidin-4-yl)-2H-indazol-5-yl)-2,8-dimethylimidazo[1,2-b]pyridazine] | 1 to 10 | 1 to 10 | < 0.1 | 1 to 10 | – | – | – | –
Cc1cn2nc(-c3cc(F)c4nn(C5CCN(CCO)C6(CC6)C5)cc4c3)cc(C)c2n1 (stereo not drawn) [Compound 180, 2-[7-[5-(2,8-dimethylimidazo[1,2-b]pyridazin-6-yl)-7-fluoro-indazol-2-yl]-4-azaspiro[2.5]octan-4-yl]ethanol] | – | – | – | – | 0.1 to 1 | 0.1 to 1 | 0.1 to 1 | < 0.1
Cc1cn2nc(-c3cc(F)c4nn(C5CCN(C6CCC6)C6(CC6)C5)cc4c3)cc(C)c2n1 (stereo not drawn) [Compound 186, 6-[2-(4-cyclobutyl-4-azaspiro[2.5]octan-7-yl)-7-fluoro-indazol-5-yl]-2,8-dimethyl-imidazo[1,2-b]pyridazine] | – | – | – | – | 0.1 to 1 | 0.1 to 1 | 0.1 to 1 | < 0.1
Cc1cn2nc(-c3ccc4nn(C5CCNCC5)cc4c3)cc(C)c2n1 [Compound 192, 2,8-dimethyl-6-[2-(4-piperidyl)indazol-5-yl]imidazo[1,2-b]pyridazine] | 0.1 to 1 | 0.1 to 1 | < 0.1 | 0.1 to 1 | – | – | – | –
Cc1cn2nc(-c3cc(F)c4nn(CC5CCNCC5)cc4c3)cc(C)c2n1 [Compound 212, 6-[7-fluoro-2-(4-piperidylmethyl)indazol-5-yl]-2,8-dimethyl-imidazo[1,2-b]pyridazine] | 0.1 to 1 | 0.1 to 1 | < 0.1 | 0.1 to 1 | – | – | – | –

Now from value to compound, other results behind:

IC50 (MYB mRNA; [1]) [µM] | IC50 (MYB mRNA; [2]) [µM] | IC50 (SMN2 mRNA; [1]) [µM] | Compound | AC50 (MYB mRNA; [3]) [µM] | AC50 (MYB mRNA; 24 h) [µM] | IC50 (MYB mRNA; 24 h) [µM] | IC50 (MYB mRNA) [µM] | IC50 (SMN2 mRNA) [µM]
0.1 to 1 | 0.1 to 1 | < 0.1 | Cc1cn2nc(-c3cc(F)c4nn(C5CCNCC5F)cc4c3)cc(C)c2n1 (stereo not drawn) [Compound 166, 6-[7-fluoro-2-(3-fluoro-4-piperidyl)indazol-5-yl]-2,8-dimethyl-imidazo [1,2-b]pyridazine] | 0.1 to 1 | – | – | – | –
0.1 to 1 | 0.1 to 1 | < 0.1 | Cc1cn2nc(-c3cc(F)c4nn([C@@H]5CCNC[C@H]5F)cc4c3)cc(C)c2n1 [Compound 168, 6-(7-fluoro-2-((3R,4R)-3-fluoropiperidin-4-yl)-2H-indazol-5-yl)-2,8-dimethylimidazo [1,2-b]pyridazine] | 0.1 to 1 | – | – | – | –
0.1 to 1 | 0.1 to 1 | < 0.1 | Cc1cn2nc(-c3cc(F)c4nn(C5CCNC6(CC6)C5)cc4c3)cc(C)c2n1 (stereo not drawn) [Compound 171, 6-[2-(4-azaspiro[2.5]octan-7-yl)-7-fluoro-indazol-5-yl]-2,8-dimethyl-imidazo[1,2-b]pyridazine] | 0.1 to 1 | – | – | – | –
< 0.1 | < 0.1 | < 0.1 | Cc1cn2nc(-c3cc(F)c4nn([C@H]5CCNC6(CC6)C5)cc4c3)cc(C)c2n1 [Compound 172] | < 0.1 | – | – | – | –
0.1 to 1 | 0.1 to 1 | < 0.1 | Cc1cn2nc(-c3cc(F)c4nn([C@@H]5CCNC6(CC6)C5)cc4c3)cc(C)c2n1 [Compound 173] | 0.1 to 1 | – | – | – | –
0.1 to 1 | 0.1 to 1 | < 0.1 | Cc1cn2nc(-c3cc(F)c4nn(C5CCN(C)C6(CC6)C5)cc4c3)cc(C)c2n1 (stereo not drawn) [Compound 174, 6-[7-fluoro-2-(4-methyl-4-azaspiro[2.5]octan-7-yl)indazol-5-yl]-2,8-dimethyl-imidazo[1,2-b]pyridazine] | 0.1 to 1 | – | – | – | –
0.1 to 1 | 0.1 to 1 | < 0.1 | CCN1CCC(n2cc3cc(-c4cc(C)c5nc(C)cn5n4)cc(F)c3n2)CC12CC2 (stereo not drawn) [Compound 177, 6-[2-(4-ethyl-4-azaspiro[2.5]octan-7-yl)-7-fluoro-indazol-5-yl]-2,8-dimethyl-imidazo[1,2-b]pyridazine] | 0.1 to 1 | – | – | – | –
0.1 to 1 | 0.1 to 1 | < 0.1 | Cc1cn2nc(-c3cc(F)c4nn(C5CCN(CC6CC6)C6(CC6)C5)cc4c3)cc(C)c2n1 (stereo not drawn) [Compound 183, 6-[2-[4-(cyclopropylmethyl)-4-azaspiro[2.5]octan-7-yl]-7-fluoro-indazol-5-yl]-2,8-dimethyl-imidazo[1,2-b]pyridazine] | 0.1 to 1 | – | – | – | –
0.1 to 1 | 0.1 to 1 | < 0.1 | Cc1cn2nc(-c3cc(F)c4nn(C5CCNC6(CCC6)C5)cc4c3)cc(C)c2n1 (stereo not drawn) [Compound 189, 6-[2-(5-azaspiro[3.5]nonan-8-yl)-7-fluoro-indazol-5-yl]-2,8-dimethyl-imidazo[1,2-b]pyridazine] | 0.1 to 1 | – | – | – | –
